What all share (assay type): cell-based, human
The test system of one assay is BE1 stem cells. Description: Small molecule screen and dose-response in 384-well plates, BE1 stem cells.
Assay [1] has as its system normal esophageal stem cells. Description: Small molecule screen and dose-response in 384-well plates, normal esophageal stem cells.
The test system of assay [2] is BE1 and normal esophageal stem cells. Nature of the assay: Co-cultures of BE1 and normal esophageal stem cells. As to conditions: in combination with ponatinib. The source says:
FIGS. 6a-g. Drug development for precursor lesions. FIG. 6a. […] FIG. 6b. […] FIG. 6c. Dose-response curves of candidate drug (CEP-18770). FIG. 6d. […] FIG. 6e. […] FIG. 6f. […] FIG. 6g.
Small molecule screens against precursor stem cells. Given that Barrett's esophagus is an essential precursor for EAC, the inventors adapted BE1 stem cells to high-throughput screening platforms to identify proof-of-concept leads for preemptive therapies.

Some results are limits rather than exact numbers.

`CN[C@@H](C)C(=O)N[C@H]1CCCC[C@H]2CC[C@@H](C(=O)N[C@@H](c3ccccc3)c3cn(CCCCc4ccc(CCCCn5cc([C@@H](NC(=O)[C@@H]6CC[C@@H]7CCCC[C@H](NC(=O)[C@H](C)NC)C(=O)N76)c6ccccc6)nn5)cc4)nn3)N2C1=O` [SM-164]: the IC50 (in general, the concentration needed to halve the response being measured) with BE1 stem cells (in combination with ponatinib, read-out: IC50 for eliminating BE1 stem cells) is less than 1 nM. Moreover, the “Impact on normal esophageal stem cells” value in assay [1] (in combination with ponatinib) is “minimal impact”. The “Effect on normal esophageal stem cells in co-culture” value in assay [2] (co-culture with BE1 stem cells) is given as “promotes the expansion”. Further, the “Effect on BE1 cells in co-culture” value in assay [2] (co-culture with normal esophageal stem cells) is “selectively eliminates the BE1 cells”.
As for `Cc1ccc(C(=O)Nc2ccc(CN3CCN(C)CC3)c(C(F)(F)F)c2)cc1C#Cc1cnc2cccnn12` [ponatinib, 3-[2-(Imidazo[1,2-b]pyridazin-3-yl)ethynyl]-4-methyl-N-[4-(4-methylpiperazin-1-ylmethyl)-3-(trifluoromethyl)phenyl]benzamide], in the assay on BE1 stem cells (single agent), the “Growth of BE1 stem cells” value was “marginally inhibiting the growth”. In addition, the “Growth of normal esophageal stem cells” value in assay [1] (single agent, screens of stem cells from eight cases) is recorded as “best of these esophageal stem cell “promoters””.

Values taken from patent publication US20250281624A1, “METHODS AND COMPOSITIONS FOR TREATING CHRONIC INFLAMMATORY INJURY, METAPLASIA, DYSPLASIA AND CANCERS OF EPITHELIAL TISSUES” (University of Houston System, priority 2021, published 2025).
